Experiments:
Type in all cases: physicochemical
[1] = Storage stability of lyophilized formulation, HPLC of content and decomposed materials
Method: After the formulation as prepared according to Example 1 was stored at 50° C. for 2 months, the amounts of decomposed materials produced by hydrolysis were determined and compared. Typical decomposed materials are:
The relationship of the contents of compound 1, the amounts of the decomposed materials, and the added amounts of D-mannitol comprised in between the formulation before the storage and that after the storage at 50° C. for 2 months, is shown in Table 2. The determination was conducted using high performance liquid chromatography (HPLC). The determination conditions of HPLC are as shown below: • Device: Waters 600E,484,712 wisp,74 1,FD20A • Column: J'sphere ODS-L80, S-4μm, 80A 150×4.6 mmφ • Moving phase: water/acetonitrile/acetic acid=100/100/1 • Flow rate: 1.0 ml/min • Injected volume: • 20 μL (at the time for determination of impure materials) • 10 μL (at the time for determination of compound 1) • Detection wavelength • 275 nm • Detection sensibility (AUFS): • 0.64 (at the time for determination of impure materials) • 0.20 (at the time for determination of compound 1) • Solvent for dilution of samples: • water/acetonitrile/acetic acid=100/100/1 • Concentration of samples • 1 mg/ml (at the time for determination of impure materials) • 60.0 μg/ml (at the time for determination of compound 1)

[2] = Determination of surface tension by Wilhelmy method
Method: A compound to be determined that has been weighed is dissolved or suspended in a defined amount of a distilled water. As such, samples of aqueous solutions to be tested containing the compound at various concentrations are prepared, and each of the solutions is adjusted to be 50 ml aliquots.
Surface tension-measuring device (Kruess Inc., Type K12) and the personal computer for control and analysis are started, and a software for determining surface tension (Kruess Inc., K122) is launched. The determination site of the device is subjected to the circulation of the water from a thermostatic chamber to keep the temperature constant at 25° C. […]
(§1) Forty ml of a distilled water is poured into the vessel that have been washed, and the vessel is placed into the surface tension-measuring device. […] In this condition, surface tensions are determined. […] When the value of surface tension as determined one minute later is almost constant, then the value is recorded and the determination is stopped.
as §1, with “After the blank determination, 40” for “Forty”, “sample of aqueous solutions” for “distilled water”, “stopped. […]” for “stopped.”

[3] = Ross-Miles Foaming Test (foaming vs pH); conditions: 0.1% w/w in water for injection, 25° C., ISO 696-1975
Method: Compound 1 was dissolved in a water for injection (0.1% w/w), and the solution was quantitatively determined for foaming by Ross-Miles Foaming Test. Ross-Miles Foaming Test was conducted according to the method as defined in International Standard ISO 696-1975 except that the determination temperature was set 25° C.

[4] = D-mannitol 0% of the weight of compound 1
[5] = D-mannitol 25% of the weight of compound 1
[6] = D-mannitol 50% of the weight of compound 1
[7] = D-mannitol 100% of the weight of compound 1

## CC1(C)CC[C@]2(C(=O)[O-])CC[C@]3(COC(=O)/C=C/c4cc(O)ccc4NC(=O)/C=C/C(=O)[O-])C(=CC[C@@H]4[C@@]5(C)CCC(=O)C(C)(C)[C@@H]5CC[C@]43C)[C@@H]2C1.[Na+].[Na+] [compound 1]
[1]; [4]
  Content of compound 1 (after storage at 50° C. for 2 months): 97.1 ± 0.1%
  amount of Other related compounds, After storage at 50° C. for 2 months: 0.66 ± 0.14%
  amount of Other related compounds, Before storage: 0.32 ± 0.02%
  amount of decomposed material compound A, After storage at 50° C. for 2 months: 1.71 ± 0.08%
  amount of decomposed material compound A, Before storage: 0.26 ± 0.02%
[1]; [5]
  Content of compound 1 (after storage at 50° C. for 2 months): 97.9 ± 0.4%
  amount of Other related compounds, After storage at 50° C. for 2 months: 0.87 ± 0.02%
  amount of Other related compounds, Before storage: 0.33 ± 0.03%
  amount of decomposed material compound A, After storage at 50° C. for 2 months: 0.44 ± 0.01%
  amount of decomposed material compound A, Before storage: 0.13 ± 0.01%
[1]; [6]
  Content of compound 1 (after storage at 50° C. for 2 months): 98.0 ± 0.1%
  amount of Other related compounds, After storage at 50° C. for 2 months: 0.89 ± 0.05%
  amount of Other related compounds, Before storage: 0.32 ± 0.02%
  amount of decomposed material compound A, After storage at 50° C. for 2 months: 0.24 ± 0.01%
  amount of decomposed material compound A, Before storage: 0.11 ± 0.01%
[1]; [7]
  Content of compound 1 (after storage at 50° C. for 2 months): 98.3 ± 0.1%
  amount of Other related compounds, After storage at 50° C. for 2 months: 1.24 ± 0.05%
  amount of Other related compounds, Before storage: 0.31 ± 0.01%
  amount of decomposed material compound A, After storage at 50° C. for 2 months: 0.23 ± 0.02%
  amount of decomposed material compound A, Before storage: 0.11 ± 0.01%
[2]; 37.6 mM solution of compound 1 in water, 25° C., Wilhelmy method
  surface tension: 53.9±0.2 mN/m
[2]; aqueous solutions at various concentrations, pH 9.5 adjusted with sodium hydroxide, FIG. 1
  decrease in surface tension, pH 9.5 vs pH 7 to 7.5: the decrease in the surface tension is inhibited at pH 9.5 more than that at pH7 to 7.5
[3]
  foaming by Ross-Miles Foaming Test in relation to pH: the foaming was inhibited depending on the increase in pH

— patent publication US7645793B2, “Injectable pharmaceutical formulations” (Shionogi & Co., Ltd., priority 2001, dated 2010)
